# Test results reported in ChEMBL document CHEMBL1201862, “PubChem BioAssay data set” (2004).
# Calls of active or inactive are those of the source.
# Legend:
# [1] = NIH-3T3 fibroblast cytotoxicity, dose response, cytotoxicity control, cell-based, fluorescence, Alamar Blue, secondary assay (AID 2327); format: functional;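 further: NIH-3T3 mouse fibroblasts cultured with fluconazole at 8 µg/mL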
# [2] = fluconazole-exposed Candida albicans growth modulators – fluorescence, retest, confirmation (AID 2467); format: functional, cell-based
# [3] = biological target: T1, Leucine aminopeptidase (Plasmodium falciparum 3D7, UniProt Q8IL11); experiment: P. falciparum M17LAP inhibitors, primary screen, biochemical, fluorogenic H-Leu-NHMec substrate, 1536-well (AID 1619); format: functional
# T1 sequence (Q8IL11 whole entry): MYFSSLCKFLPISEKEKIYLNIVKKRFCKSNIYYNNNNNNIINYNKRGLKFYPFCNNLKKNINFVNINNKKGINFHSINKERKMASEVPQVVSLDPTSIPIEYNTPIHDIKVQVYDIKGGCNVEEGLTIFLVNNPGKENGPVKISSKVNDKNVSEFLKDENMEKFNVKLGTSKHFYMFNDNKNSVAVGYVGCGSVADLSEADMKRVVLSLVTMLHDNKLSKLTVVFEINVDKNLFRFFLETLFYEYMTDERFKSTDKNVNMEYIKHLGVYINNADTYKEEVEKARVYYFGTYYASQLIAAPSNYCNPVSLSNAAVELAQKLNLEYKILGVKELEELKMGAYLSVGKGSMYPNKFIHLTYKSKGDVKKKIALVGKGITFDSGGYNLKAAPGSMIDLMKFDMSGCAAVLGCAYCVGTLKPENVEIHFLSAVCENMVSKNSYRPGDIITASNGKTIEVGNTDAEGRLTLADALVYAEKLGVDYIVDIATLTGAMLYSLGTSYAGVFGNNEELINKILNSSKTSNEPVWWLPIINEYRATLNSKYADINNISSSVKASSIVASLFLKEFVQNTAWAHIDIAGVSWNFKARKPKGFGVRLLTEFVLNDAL
# [4] = Trypanosoma cruzi growth suppression in host cells – NIH3T3 host cells, beta-gal luminescence, confirmation (AID 2044); format: functional, cell-based;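 further: intracellular parasites grown in NIH/3T3 mouse fibroblasts as host cells; luminescent beta-galactosidase reporter signal from transgenic T. cruzi replicating inside host cells; inhibitors lower the luminescence signal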
# [5] = NIH3T3 cell viability loss – ATP luminescence, mouse fibroblasts, counter-screen, dose response (AID 2010); format: functional, cell-based;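 further: cells exposed to compound for about 90 hours before reading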
# [6] = tested on: Vero; experiment: cells; format: functional; settings: Chlorocebus sabaeus
# [7] = biological target: T2, Fatty acid synthase (Homo sapiens, UniProt P49327); experiment: inhibition of human FAS-TE enzyme activity – biochemical, endpoint fluorescence intensity, uHTS hits, dose response (AID 624327); format: functional;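 further: fluorescence from hydrolysis of an O-methyl fluorescein acyl ester substrate by the enzyme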
# T2 sequence (P49327 whole entry): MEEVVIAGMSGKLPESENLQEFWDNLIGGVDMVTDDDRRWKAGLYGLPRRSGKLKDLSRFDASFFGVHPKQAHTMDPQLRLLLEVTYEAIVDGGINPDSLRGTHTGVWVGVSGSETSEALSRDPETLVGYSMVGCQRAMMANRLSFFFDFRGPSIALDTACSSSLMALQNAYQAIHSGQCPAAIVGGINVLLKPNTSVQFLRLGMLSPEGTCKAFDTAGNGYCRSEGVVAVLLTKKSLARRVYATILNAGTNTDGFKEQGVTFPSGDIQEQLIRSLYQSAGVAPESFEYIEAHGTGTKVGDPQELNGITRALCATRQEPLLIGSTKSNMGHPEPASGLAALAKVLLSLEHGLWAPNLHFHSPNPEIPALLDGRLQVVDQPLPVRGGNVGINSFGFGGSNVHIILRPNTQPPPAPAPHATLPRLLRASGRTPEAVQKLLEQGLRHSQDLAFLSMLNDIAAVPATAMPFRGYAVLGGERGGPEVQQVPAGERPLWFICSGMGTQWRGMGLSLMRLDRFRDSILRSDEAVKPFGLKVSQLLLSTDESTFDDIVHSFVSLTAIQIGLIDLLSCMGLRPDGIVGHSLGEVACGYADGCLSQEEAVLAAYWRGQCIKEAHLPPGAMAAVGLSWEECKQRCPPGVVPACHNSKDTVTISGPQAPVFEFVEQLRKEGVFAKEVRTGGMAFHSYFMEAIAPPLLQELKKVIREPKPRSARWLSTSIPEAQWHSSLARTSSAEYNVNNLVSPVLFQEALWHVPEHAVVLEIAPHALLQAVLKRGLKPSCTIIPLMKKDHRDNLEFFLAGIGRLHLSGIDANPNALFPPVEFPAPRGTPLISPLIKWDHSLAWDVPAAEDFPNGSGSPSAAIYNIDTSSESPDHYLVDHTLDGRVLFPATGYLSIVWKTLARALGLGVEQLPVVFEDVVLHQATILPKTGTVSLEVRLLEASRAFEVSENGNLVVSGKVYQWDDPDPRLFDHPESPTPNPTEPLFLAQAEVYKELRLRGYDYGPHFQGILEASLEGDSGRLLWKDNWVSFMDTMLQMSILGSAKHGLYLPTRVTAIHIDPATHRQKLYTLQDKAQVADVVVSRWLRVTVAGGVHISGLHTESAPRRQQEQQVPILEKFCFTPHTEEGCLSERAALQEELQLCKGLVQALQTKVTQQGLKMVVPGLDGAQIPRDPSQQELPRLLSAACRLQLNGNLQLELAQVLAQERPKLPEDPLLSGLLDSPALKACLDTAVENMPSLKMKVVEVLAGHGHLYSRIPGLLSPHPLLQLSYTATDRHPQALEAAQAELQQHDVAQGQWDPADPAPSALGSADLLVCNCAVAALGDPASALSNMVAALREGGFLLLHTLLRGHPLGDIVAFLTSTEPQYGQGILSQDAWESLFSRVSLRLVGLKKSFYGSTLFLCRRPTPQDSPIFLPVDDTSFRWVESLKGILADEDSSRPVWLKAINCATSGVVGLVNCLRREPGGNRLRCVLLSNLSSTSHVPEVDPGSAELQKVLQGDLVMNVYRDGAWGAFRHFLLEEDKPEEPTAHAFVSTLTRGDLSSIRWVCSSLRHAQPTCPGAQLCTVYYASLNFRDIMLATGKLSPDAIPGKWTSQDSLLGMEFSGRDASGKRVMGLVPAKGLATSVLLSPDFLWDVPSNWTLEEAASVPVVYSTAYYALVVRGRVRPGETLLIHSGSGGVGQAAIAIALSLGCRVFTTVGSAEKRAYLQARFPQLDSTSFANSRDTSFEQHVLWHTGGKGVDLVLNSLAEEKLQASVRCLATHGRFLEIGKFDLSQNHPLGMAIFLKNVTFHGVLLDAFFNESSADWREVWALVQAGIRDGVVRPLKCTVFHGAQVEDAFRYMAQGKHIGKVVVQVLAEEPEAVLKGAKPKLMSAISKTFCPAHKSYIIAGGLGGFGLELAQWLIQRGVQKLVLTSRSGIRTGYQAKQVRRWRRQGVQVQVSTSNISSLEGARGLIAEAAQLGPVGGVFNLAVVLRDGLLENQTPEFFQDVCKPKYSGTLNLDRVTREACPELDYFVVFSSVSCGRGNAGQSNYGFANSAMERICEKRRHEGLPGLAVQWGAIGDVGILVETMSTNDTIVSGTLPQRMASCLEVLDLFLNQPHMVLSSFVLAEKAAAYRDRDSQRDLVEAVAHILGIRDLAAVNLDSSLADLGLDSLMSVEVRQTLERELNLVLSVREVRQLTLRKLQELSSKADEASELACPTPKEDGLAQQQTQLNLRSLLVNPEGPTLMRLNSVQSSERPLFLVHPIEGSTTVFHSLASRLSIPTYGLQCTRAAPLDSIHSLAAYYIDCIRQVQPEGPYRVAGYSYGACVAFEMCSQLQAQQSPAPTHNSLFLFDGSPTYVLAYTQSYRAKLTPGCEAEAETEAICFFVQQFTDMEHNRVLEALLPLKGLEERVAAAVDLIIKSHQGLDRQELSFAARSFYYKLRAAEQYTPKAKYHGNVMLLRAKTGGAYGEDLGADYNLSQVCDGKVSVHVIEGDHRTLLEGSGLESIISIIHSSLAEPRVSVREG
# [8] = biological target: T2, Fatty acid synthase; experiment: inhibition of human FAS-TE enzyme activity – biochemical, kinetic fluorescence intensity, dose response (AID 624326); format: functional;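 further: rate of fluorescence rise from hydrolysis of a fluorogenic O-methyl fluorescein ester substrate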
# [9] = reduction of Shn3 3'UTR-driven luciferase in osteoblasts – cell-based, Clone20 osteoblasts, firefly luciferase, cherry-picked, dose response (AID 624132); format: functional;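 further: firefly luciferase luminescence from reporter carrying the Shn3 3'UTR in osteoblasts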
# [10] = non-specific 3'UTR reporter inhibition in Clone20-Shn3RL – cell-based, Renilla luciferase, cherry-picked, counter-screen for Shn3 inhibitor project, dose response (AID 624133); format: functional
# [11] = biological target: Cytochrome P450 2D6 (Homo sapiens, UniProt P10635);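 further: CYP2D6 member of a cytochrome P450 panel assay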
# Chain of Cytochrome P450 2D6 (P10635 whole entry): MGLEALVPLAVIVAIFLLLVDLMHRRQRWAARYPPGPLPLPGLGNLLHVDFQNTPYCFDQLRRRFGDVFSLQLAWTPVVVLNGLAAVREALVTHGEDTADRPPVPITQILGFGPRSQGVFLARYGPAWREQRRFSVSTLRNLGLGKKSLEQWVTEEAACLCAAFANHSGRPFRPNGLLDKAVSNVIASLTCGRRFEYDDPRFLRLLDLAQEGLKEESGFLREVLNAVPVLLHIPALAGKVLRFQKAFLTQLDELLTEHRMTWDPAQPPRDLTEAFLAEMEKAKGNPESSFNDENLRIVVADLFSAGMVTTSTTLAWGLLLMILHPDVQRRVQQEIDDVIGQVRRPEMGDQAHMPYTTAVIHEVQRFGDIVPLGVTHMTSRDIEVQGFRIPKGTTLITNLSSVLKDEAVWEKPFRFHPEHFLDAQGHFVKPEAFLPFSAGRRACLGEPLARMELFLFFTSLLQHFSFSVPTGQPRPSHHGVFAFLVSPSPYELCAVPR
# [12] = biological target: Cytochrome P450 2C9 (Homo sapiens, UniProt P11712)
# Chain of Cytochrome P450 2C9 (P11712 whole entry): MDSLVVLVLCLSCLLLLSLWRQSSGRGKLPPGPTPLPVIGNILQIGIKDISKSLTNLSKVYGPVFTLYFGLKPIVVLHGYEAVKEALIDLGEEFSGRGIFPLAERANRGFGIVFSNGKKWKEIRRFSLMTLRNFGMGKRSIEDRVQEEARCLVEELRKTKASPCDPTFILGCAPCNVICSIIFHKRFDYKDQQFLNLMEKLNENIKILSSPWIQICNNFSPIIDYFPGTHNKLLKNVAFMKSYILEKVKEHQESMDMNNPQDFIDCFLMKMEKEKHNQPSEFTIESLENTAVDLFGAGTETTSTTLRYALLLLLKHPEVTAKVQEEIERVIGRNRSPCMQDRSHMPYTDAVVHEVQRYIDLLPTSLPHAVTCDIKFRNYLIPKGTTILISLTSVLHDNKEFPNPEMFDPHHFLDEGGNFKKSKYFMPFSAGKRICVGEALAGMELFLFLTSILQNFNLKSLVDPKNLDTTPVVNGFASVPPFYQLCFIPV
# [13] = Luminescence Cell-Based Dose Confirmation HTS to Identify Activators of 5'UTR Stem-Loop Driven Alpha-Synuclein mRNA Translation in H4 Neuroglioblastoma Cells. [Related pubchem assays: 1829 (Project Summary), 1814 (Primary HTS)]; format: functional
# [14] = Luminescence Cell-Based Dose Response HTS to Identify Activators of Luciferase Translation or Activity in H4 […] Cells. [Related pubchem assays: 1829 (Project Summary), 1814 (Primary HTS)]; format: functional
# [15] = tested on: H4; experiment: Luminescence Cell-Based Dose Response HTS to Identify Activators of 5'UTR Stem-Loop Driven Prion Protein mRNA Translation in H4 Neuroglioblastoma Cells. [Related pubchem assays: 1829 (Project Summary), 1814 (Primary HTS)]; format: functional; settings: Homo sapiens
# [16] = biological target: T3, Replicative DNA helicase DnaB (Mycobacterium tuberculosis, UniProt P9WMR3); experiment: DnaB intein splicing inhibitors, dose response, biochemical, cell-free fluorescence (AID 449749); format: functional
# T3 sequence (P9WMR3 whole entry): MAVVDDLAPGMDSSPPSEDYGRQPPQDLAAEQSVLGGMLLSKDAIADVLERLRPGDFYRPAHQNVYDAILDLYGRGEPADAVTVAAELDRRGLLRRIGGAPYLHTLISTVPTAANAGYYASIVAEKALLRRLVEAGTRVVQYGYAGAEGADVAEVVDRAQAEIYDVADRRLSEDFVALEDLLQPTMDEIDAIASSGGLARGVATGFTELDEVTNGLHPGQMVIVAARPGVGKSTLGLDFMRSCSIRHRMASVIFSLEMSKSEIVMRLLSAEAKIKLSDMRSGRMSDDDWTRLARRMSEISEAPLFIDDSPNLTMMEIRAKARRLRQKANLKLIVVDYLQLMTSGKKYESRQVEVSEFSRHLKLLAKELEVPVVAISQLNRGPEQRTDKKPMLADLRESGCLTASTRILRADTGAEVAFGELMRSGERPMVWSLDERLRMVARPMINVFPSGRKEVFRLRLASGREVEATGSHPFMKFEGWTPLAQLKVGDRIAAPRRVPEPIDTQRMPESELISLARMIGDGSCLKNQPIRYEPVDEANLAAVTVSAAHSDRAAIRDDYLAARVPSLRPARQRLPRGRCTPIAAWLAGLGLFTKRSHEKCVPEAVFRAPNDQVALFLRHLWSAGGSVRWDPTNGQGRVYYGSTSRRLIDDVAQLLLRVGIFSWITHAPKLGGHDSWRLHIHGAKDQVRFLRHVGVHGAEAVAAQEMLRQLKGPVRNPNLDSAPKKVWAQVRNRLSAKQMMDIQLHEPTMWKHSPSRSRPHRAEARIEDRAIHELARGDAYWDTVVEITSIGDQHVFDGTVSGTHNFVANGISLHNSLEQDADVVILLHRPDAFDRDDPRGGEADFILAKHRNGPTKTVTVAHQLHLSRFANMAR
# [17] = biological target: T4, Protein RecA (Mycobacterium tuberculosis, UniProt P9WHJ3); experiment: Fluorescence Cell-Free Homogeneous Dose Retest to Identify Inhibitors of RecA-Intein Splicing Activity. [Related pubchem assays (depositor defined):AID2097, AID2223, AID489010, AID492950]; format: functional
# T4 sequence (P9WHJ3 whole entry): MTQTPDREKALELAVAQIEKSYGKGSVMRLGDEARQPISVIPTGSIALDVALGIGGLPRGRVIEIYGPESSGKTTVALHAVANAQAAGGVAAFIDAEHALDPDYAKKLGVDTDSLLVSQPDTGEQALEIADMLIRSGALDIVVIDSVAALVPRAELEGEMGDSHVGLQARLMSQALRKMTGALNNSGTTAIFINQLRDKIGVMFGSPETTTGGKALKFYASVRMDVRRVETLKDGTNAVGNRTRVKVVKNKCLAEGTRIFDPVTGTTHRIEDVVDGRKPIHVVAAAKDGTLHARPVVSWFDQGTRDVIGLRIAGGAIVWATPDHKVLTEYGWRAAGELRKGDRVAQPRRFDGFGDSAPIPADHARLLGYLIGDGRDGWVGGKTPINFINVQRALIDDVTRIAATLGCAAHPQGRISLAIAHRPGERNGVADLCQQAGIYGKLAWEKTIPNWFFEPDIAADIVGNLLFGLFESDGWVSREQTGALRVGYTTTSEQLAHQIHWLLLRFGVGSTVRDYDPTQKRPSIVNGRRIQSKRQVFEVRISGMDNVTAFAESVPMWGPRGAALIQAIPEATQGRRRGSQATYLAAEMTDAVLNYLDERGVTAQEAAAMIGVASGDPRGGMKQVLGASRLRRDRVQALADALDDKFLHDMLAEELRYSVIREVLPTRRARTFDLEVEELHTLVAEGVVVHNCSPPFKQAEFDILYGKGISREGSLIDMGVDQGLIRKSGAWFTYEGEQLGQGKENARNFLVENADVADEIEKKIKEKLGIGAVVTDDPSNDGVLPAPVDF
# [18] = biological target: T5, Polyadenylate-binding protein 1 (Homo sapiens, UniProt P11940); experiment: MLLE binding blockers, Cy5 peptide tracer – biochemical, fluorescence polarization, Cy5-PAM2 peptide, secondary, miRNA deadenylation inhibitor project, dose response (AID 602260); format: functional; settings: read-out: IC50_Mean
# [19] = biological target: T5, Polyadenylate-binding protein 1; experiment: MLLE domain peptide-binding blockers, IC50 – biochemical, fluorescence polarization, FITC-PAM2 peptide, dose response (AID 602259); format: functional; settings: read-out: IC50_Mean
# [20] = biological target: Large T antigen (Simian virus 40, UniProt P03070); format: functional, Betapolyomavirus macacae;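 further: Confirmatory-stage PubChem screen for compounds that inhibit SV40 T antigen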
# Chain of Large T antigen (P03070 whole entry): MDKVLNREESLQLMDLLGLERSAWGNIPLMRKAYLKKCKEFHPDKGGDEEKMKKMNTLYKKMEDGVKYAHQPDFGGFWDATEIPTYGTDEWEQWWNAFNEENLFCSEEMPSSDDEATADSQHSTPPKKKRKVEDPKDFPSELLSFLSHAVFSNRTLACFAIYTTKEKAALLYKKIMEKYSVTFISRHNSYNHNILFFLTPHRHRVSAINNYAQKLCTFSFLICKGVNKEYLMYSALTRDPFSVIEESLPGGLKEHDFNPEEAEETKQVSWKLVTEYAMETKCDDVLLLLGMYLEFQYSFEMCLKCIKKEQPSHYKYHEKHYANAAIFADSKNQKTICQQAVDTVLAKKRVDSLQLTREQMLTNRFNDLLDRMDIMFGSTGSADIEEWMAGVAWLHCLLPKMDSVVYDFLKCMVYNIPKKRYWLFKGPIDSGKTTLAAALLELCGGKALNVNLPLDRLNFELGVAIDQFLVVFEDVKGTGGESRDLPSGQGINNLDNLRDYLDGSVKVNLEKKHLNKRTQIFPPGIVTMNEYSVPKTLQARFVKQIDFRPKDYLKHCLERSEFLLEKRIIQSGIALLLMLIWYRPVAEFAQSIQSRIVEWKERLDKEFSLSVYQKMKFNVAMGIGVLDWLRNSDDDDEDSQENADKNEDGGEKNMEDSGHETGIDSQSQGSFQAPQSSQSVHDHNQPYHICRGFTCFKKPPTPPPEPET
# [21] = biological target: FAD-linked sulfhydryl oxidase ALR (Homo sapiens, UniProt P55789); experiment: ALR-catalysed DTT oxidation blockers – biochemical, H2O2 detection, luminescence, cherry-pick, dose response (AID 493248)
# Chain of FAD-linked sulfhydryl oxidase ALR (P55789 whole entry): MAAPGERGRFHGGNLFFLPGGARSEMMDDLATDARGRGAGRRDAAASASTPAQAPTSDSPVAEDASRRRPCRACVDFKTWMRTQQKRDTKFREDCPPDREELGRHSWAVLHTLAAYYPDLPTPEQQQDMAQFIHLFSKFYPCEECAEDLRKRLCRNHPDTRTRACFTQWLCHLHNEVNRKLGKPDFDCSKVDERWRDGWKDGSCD
# [22] = biological target: Glucose-6-phosphate 1-dehydrogenase (Homo sapiens, UniProt P11413); experiment: inhibition of Homo sapiens G6PD, dose series – biochemical, fluorescence, selectivity assay for P. falciparum G6PD inhibitor project, dose response (AID 504792); format: functional
# Chain of Glucose-6-phosphate 1-dehydrogenase (P11413 whole entry): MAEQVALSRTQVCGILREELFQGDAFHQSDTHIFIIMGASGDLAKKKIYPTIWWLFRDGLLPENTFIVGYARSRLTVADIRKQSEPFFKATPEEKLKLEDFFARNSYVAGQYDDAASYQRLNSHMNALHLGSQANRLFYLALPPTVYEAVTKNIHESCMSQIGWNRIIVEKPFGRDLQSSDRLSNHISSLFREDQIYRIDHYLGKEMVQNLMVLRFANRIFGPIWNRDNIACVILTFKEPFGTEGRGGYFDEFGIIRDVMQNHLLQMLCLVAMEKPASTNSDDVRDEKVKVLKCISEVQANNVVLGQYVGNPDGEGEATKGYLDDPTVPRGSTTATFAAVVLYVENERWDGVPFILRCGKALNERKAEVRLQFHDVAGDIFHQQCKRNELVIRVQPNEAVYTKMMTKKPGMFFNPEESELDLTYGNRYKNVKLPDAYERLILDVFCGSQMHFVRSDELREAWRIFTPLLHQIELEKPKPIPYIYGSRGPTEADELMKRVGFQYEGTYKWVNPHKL
smiles,measurement,setting,value
CCCCN(C(=O)/C=C/c1ccco1)c1c(N)n(Cc2ccccc2)c(=O)[nH]c1=O,EC50,[1],> 150 µM (inactive)
same,EC50,[2],> 38 µM (not active)
CCOC(=O)CSc1nnc(-c2ccco2)n1-c1ccc(C)cc1,IC50,[3],37 µM (active)
CNc1ncnc(Sc2ccc(Cl)cc2)c1[N+](=O)[O-],EC50,[4],3.2 µM (active)
same,EC50,[5],> 60 µM (not active)
same,CC50,[6],> 25 µM (active)
O=C(/C=C/c1cccc([N+](=O)[O-])c1)NCCSCc1c(Cl)cccc1Cl,IC50,[7],4.12 µM (active)
same,IC50,[8],3.92 µM (active)
CC1Cc2ccccc2N1Cc1cccc(S(=O)(=O)N(C)C)c1 (configuration not stated),AC50,[9],33 µM (active)
same,AC50,[10],23.9 µM (active)
CCCCOc1ccc(CN2CCC(O)CC2)cc1,AC50,[11],0.2 µM (inconclusive)
same,AC50,[12],inconclusive
Cc1ccc(C2=NNC3(CCOC(C)(C)C3)S2)cc1 (configuration not stated),EC50,[1],> 160 µM (inactive)
same,EC50,[13],14 µM (active)
same,EC50,[14],30.5 µM (active)
same,EC50,[15],19.1 µM (active)
same,EC50,[2],> 38 µM (not active)
Cc1c(O)c(S(=O)(=O)c2ccccc2)c(=O)n(-c2ccccc2)c1-c1ccccc1,IC50,[3],9.98 µM (active)
COc1cc(C2C3=C(COC3=O)Oc3cc4c(cc32)OCO4)cc(OC)c1OC (configuration not stated),CC50,[6],< 0.05 µM (active)
CCCCOC(=O)CNc1nnc(SCC(=O)OCC)nc1O,AC50,[16],2.66 µM (active)
same,EC50,[17],4.56 µM (active)
same,IC50,[18],> 66 µM (inactive)
same,IC50,[19],> 66 µM (inactive)
same,IC50,[7],7.5 µM (active)
same,IC50,[8],9.16 µM (active)
Cc1cccc(-c2nc3ccccc3c(=O)n2NC(=O)/C=C/c2ccc([N+](=O)[O-])cc2)c1,EC50,[1],> 150 µM (inactive)
same,EC50,[2],0.101 µM (active)
O=C(CSc1nc[nH]n1)Nc1ccccc1C(=O)O,IC50,[3],35.6 µM (active)
COc1cccc(N2C(=O)NC(=O)/C(=C\NCCN3CCOCC3)C2=O)c1,AC50,[12],inconclusive
Cc1ccc(-c2nnc(NC(=O)c3ccc([N+](=O)[O-])o3)o2)c(C)c1,EC50,[1],> 160 µM (inconclusive)
same,EC50,[2],1.85 µM (active)
COc1cccc(CNc2ccc3[nH]c(O)nc3c2)c1OCc1ccccc1,IC50,[20],16.5 µM (active)
Cc1ccc(SC(C)C(=O)Nc2ccc(S(=O)(=O)N3CCOCC3)cc2)cc1 (configuration not stated),IC50,[3],21.2 µM (active)
Cn1c(=O)oc2cc(S(=O)(=O)Nc3ccc(O)cc3)ccc21,IC50,[20],4.64 µM (active)
same,AC50,[21],1.49 µM (active)
CC(C)Sc1nnc(NC(=O)c2ccc3c(c2)OCO3)s1,IC50,[22],38.9 µM (inactive)
COc1ccc(/C=C/C(=O)Nc2nc(C)cc(C)n2)cc1OC,AC50,[12],inconclusive
COc1ccc(CCNC(=O)c2ccc3c(SCC(=O)O)c4c(nc3c2)CCCC4)cc1OC,IC50,[3],23.3 µM (active)
O=C(COc1cccc2ccccc12)NNC(=O)c1cccs1,AC50,[12],inconclusive
COc1cc(/C=C2\C(=O)NN(c3ccccc3)C2=O)ccc1OCC(N)=O,IC50,[20],> 100 µM (active)
O=c1oc(-c2ccccc2Br)nc2ccccc12,IC50,[7],16.1 µM (active)
same,IC50,[8],13 µM (active)
COc1ccc(CNc2cc(-c3cccc(NS(C)(=O)=O)c3)ncn2)c(OC)c1,AC50,[11],39.8 µM (inconclusive)
same,AC50,[12],inconclusive
C[C@@]12C(=O)Nc3cc(F)c(F)cc3C(=O)N1[C@H]1c3ccccc3OC[C@@H]1[C@@H]2c1ccccc1,IC50,[7],16.9 µM (active)
same,IC50,[8],8.59 µM (active)
O=[N+]([O-])c1cc(CS(=O)(=O)Oc2ccc(Cl)cc2)c(O)c([N+](=O)[O-])c1,IC50,[7],16.1 µM (active)
same,IC50,[8],41.7 µM (inactive)
CCOC(=O)c1c(NC(=O)COC(=O)c2ccc(S(=O)(=O)C(F)F)cc2)sc(C(=O)N(C)C)c1C,CC50,[6],> 25 µM (active)
CC(=O)c1cccc(-c2ccnc3c2CC(C(=O)Nc2ccc(F)c(Cl)c2)O3)c1 (configuration not stated),IC50,[7],7.72 µM (active)
same,IC50,[8],7.91 µM (active)
OCCNc1nc(O)nc(O)c1/N=C/c1ccccc1,IC50,[22],14.2 µM (active)
Cc1nn(-c2ccccc2)c(S)c1/C=N/c1ccc([N+](=O)[O-])cc1,IC50,[20],25.7 µM (active)
O=C(Cc1ccccc1)N/N=C/c1ccccc1Cl,EC50,[1],> 150 µM (inconclusive)
same,EC50,[2],> 38 µM (not active)
COc1cc(C(=O)N/N=C(\C)Cn2nc([N+](=O)[O-])cc2C)ccc1O,IC50,[20],29.3 µM (active)
Cc1cc(=O)oc2cc(O)ccc12 [HYMECROMONE],AC50,[12],inconclusive
